Experiments:
[1] = system: DSS-induced colitis; assay: DSS-induced colitis (DSS 3.5% in drinking water, 7 days); assay type: in vivo, Balb/c mice; design: key to Histological Score: summed histological score, 0 (minimum) to 20 (maximum); conditions: for MPO / Histological Score / Disease Activity Score: mean±SEM
Method: To induce dextran sodium sulfate (DSS) colitis, DSS (Sigma) was given in the drinking water for 7 days. Preliminary studies were performed to identify the concentration of DSS in the drinking water required to elicit a similar disease activity score in different mouse strains.
(§1) Mice were sacrificed 7 days after the induction of colitis. All studies were performed in a blind fashion.
Probiotics, including live probiotics, irradiated probiotics, and heat killed probiotics, were intragastrically (i.g.) given starting 10 days prior to the induction of colitis and for 7 days thereafter. In preliminary studies, mice were treated daily by i.g. administration of 0.28×10^8, 2.8×10^8 or 28×10^8 CFU of irradiated probiotics per mouse per day.
(§2) In another experiment 50 μg of these DNA preparations were administered i.g. or intrarectally (i.r.) 2 hrs prior to DSS administration. In the IL-10 deficient colitis model, ten-week old mice were treated s.c. once a week with the various DNA preparations (see above), and this treatment continued for 4 weeks as described (Rachmilewitz et al. (2002) supra). The disease-activity score, histological score, and colonic myeloperoxidase (MPO) activity were determined as described (Rachmilewitz et al. (2002) supra).
A mouse model of colitis was used and assessed, as described. Rachmilewitz et al. (2002) Gastroenterology 122:1428-1441. Colitis was induced by adding dextran sodium sulfate (DSS, Sigma), 3.5% to the drinking water, and allowing them to drink ad libitum. Seven days after induction of colitis, mice were weighed and inspected for diarrhea and rectal bleeding. The mice were sacrificed, and the entire colon was dissected and its length measured and weighed. Scores were again defined as follows: Changes in body weight: No loss—0; 5 to 10%—1; […], —2; 15 to 20%, —3; >20%—4. Hemoccult: No blood, —0; positive, —2; gross blood, —4. Mucosal samples were processed for determination of MPO activity according to: Bradley (1982) J Invest Dermatol 78:206-9.
When indicated, sections from the distal colon were fixed in buffered formalin and routine 5 μm sections were prepared and stained with hematoxylin and eosin. Stained sections were examined blindly and scored. The scoring system took into account the depth of the ulcer, the extent of the ulcer, presence of inflammation, extent of inflammation, and location of fibrosis. Minimal score was 0 and maximal score was 20. Scoring was as follows for depth of the ulcer: 0=no ulcer; 1—mucosal involvement; 2—mucosal+submucosal involvement; 3=penetration of muscularis propria; 4=full thickness involvement. Scoring was as follows for extent of the ulcer: 0=no ulcer; 1=punctate; 2=minimal; 3=moderate; 4=widespread. Scoring was as follows for presence of inflammation: 0=none; 1=minimal; 2=mild; 3=moderate; 4=severe. Scoring was as follows for extent of inflammation: 0=none; 1=mucosal; 2=mucosal+submucosal involvement; 3=mucosal+submucosal+muscle penetration; 4=full thickness involvement. Scoring was as follows for location of fibrosis: 0=none; 1=mucosa only; 2=mucosa+submucosa; 3=including muscle layer; 4=full thickness fibrosis.
Fifty mg colonic mucosal scrapings were homogenized with a polytron (Kinematica GmbH, Krienz-Luzem, Switzerland) in ice-cold hexadecyltrimethyl ammonium bromide (0.5%) in 50 mM phosphate buffer, pH 6.0. The homogenate was sonicated for 10 seconds, freeze-thawed three times, and centrifuged for 15 minutes. An aliquot of the supernatant was taken for determination of myeloperoxidase (MPO) enzyme activity, as described (Rachmilewitz et al. (2002) supra).

[2] = system: commensal flora; assay: Effect of chloroquine on stool flora of mice; assay type: in vivo; conditions: 10 mg/kg s.c. daily for 7 days versus saline
Method: Control group was treated s.c. daily with 0.2 ml of saline. After 7 days, stool samples were collected, homogenized and cultured on blood, Maconkey, phenylethanol, chocolate, M.R.S., and anaerobic agars.

[3] = system: chronic DSS-induced colitis; assay: Chronic DSS-induced colitis (treatment model); assay type: in vivo, Balb/c mice
Method: To evaluate whether probiotics are effective not only in the prevention but also in the treatment of colitis the following experiment was performed: Mice were treated for 7 days with DSS 3.5% added to the drinking water. From the 8th day until sacrifice on day 15, the concentration of DSS in the drinking water was reduced to 1.75%. During the 15 days of the experiment, 2 groups of mice were treated daily i.g. with viable or with irradiated probiotics 2.8×10^8 CFU. A third group was treated s.c. on day 8 with ISS-ODN (10 μg) and a fourth control group was treated i.g. daily with 0.2 ml of saline. […] The colon was isolated, weighed, sections were taken for histology and mucosal samples were obtained for MPO determination.

[4] = system: TNBS-induced colitis; assay: TNBS-induced colitis; assay type: in vivo, Balb/c mice; conditions: s.c. once 2 hours before TNBS; day 7; mean±SEM
Method: Trinitrobenzenesulfonic acid (TNBS) colitis was induced in 8 week old, Balb/c mice by rectal instillation of 0.5 mg/mouse of 2,4,6-trinitrobenzene sulfonic acid (Sigma) dissolved in 0.1 ml of 50% ethanol as described. Rachmilewitz et al. (2002), supra.
as §1
as §2, with “Various DNA preparations (ISS-ODN and control-ODN, 30 μg/mouse; probiotic DNA, methylated probiotic DNA, E. coli DNA and calf thymus DNA, 50 μg/mouse) and DNase treated probiotics (i.e., the amount of microorganisms that yielded 50 μg of probiotic DNA) were s.c. injected 2 hrs prior to the administration of DSS or TNBS. In another” for “In another”

[5] = system: spontaneous colitis in IL-10 KO mice; assay: Spontaneous colitis in IL-10 KO mice; assay type: in vivo, IL-10 KO mice (B6); conditions: s.c. once a week for 4 weeks; mean±SEM
Method: as §2, with “Various DNA preparations (ISS-ODN and control-ODN, 30 μg/mouse; probiotic DNA, methylated probiotic DNA, E. coli DNA and calf thymus DNA, 50 μg/mouse) and DNase treated probiotics (i.e., the amount of microorganisms that yielded 50 μg of probiotic DNA) were s.c. injected 2 hrs prior to the administration of DSS or TNBS. In another” for “In another”

[6] = system: TLR9; assay: IL-12 (p40) and IL-6 secretion by macrophages (ELISA); assay type: cell-based, mice; conditions: TLR9 null macrophages, 24 hours post-stimulation
[7] = i.g., 50 μg once 2 hours before DSS
[8] = i.r., 50 μg once 2 hours before DSS
[9] = s.c. once 2 hours before DSS, ODNs 30 μg/mouse, DNAs 50 μg/mouse
[10] = DSS 3.5% 7 days then 1.75% 7 days, probiotics 2.8×10^8 CFU i.g. daily, ISS-ODN 10 μg s.c. day 8, day 15, mean±SEM

Molecule | Disease Activity Score [1, 7] | Histological Score [1, 7] | MPO [1, 7] [U/gr] | Disease Activity Score [1, 9] | Histological Score [1, 9] | MPO [1, 9] [U/gr] | Disease Activity Score [4] | Histological Score [4] | MPO [4] [U/gr] | other results
CCN(CC)CCCC(C)Nc1ccnc2cc(Cl)ccc12 (stereo not drawn) [Chloroquine, chloroquine] |  |  |  |  |  |  |  |  |  | MPO ([1]; colonic MPO, probiotics 2.8×10^8 CFU i.g. daily, chloroquine 10 mg/kg s.c. daily, DSS 3.5% 7 days): 1.54 ± 0.16 U/gr; Histological Score ([1]; probiotics 2.8×10^8 CFU i.g. daily, chloroquine 10 mg/kg s.c. daily, DSS 3.5% 7 days): 8.0 ± 0.8; identity or quantity of bacterial strains grown from the stool [2]: No significant differences
5′-TGACTGTGAACGTTCGAGATGA-3′ [ISS-ODN] | 3.6 ± 0.7 | 2.8 ± 0.6 | 1.09 ± 0.10 | 0.4 ± 0.4 | 0 ± 0 | 0.9 ± 0.1 | 0.4 ± 0.3 | 0 ± 0 | 0.8 ± 0.10 | outcome of colitis ([1]; i.r. administration, once 2 hrs before DSS): had no effect; Disease Activity Score [1, 8]: 6.3 ± 0.7; Histological Score [1, 8]: 5.9 ± 0.7; MPO [1, 8]: 1.90 ± 0.30 U/gr; severity of DSS-induced colitis ([1]; intragastric or s.c. administration, once 2 hrs before DSS): inhibited the severity; Disease Activity Score [3, 10]: 1.1 ± 0.4; Histological Score [3, 10]: 6.9 ± 0.8; MPO [3, 10]: 1.25 ± 0.19 U/gr; severity of chronic DSS induced colitis ([3]; given with or after induction of colitis): equally attenuate the severity; Histological Score [5]: 1.8 ± 1.2; MPO [5]: 0.8 ± 0.10 U/gr; secretion of p40 or IL-6 [6]: did not induce
5′-TGACTGTG AAGGTTAGAGATGA-3 (DNA TGACTGTGAAGGTTAGAGATGA; DNA, all phosphorothioate, methylation of C not given here) [Control-ODN] | 6.7 ± 0.8 | 5.7 ± 0.3 | 1.90 ± 0.20 | 3.8 ± 0.7 | 8.0 ± 0.9 | 4.2 ± 0.8 | 1.3 ± 0.2 | 4.8 ± 1.8 | 2.00 ± 0.30 | 

— US20050180962A1, “Inactivated probiotic bacteria and methods of use thereof” (priority 2003, published 2005)
